Data as given in US7501398B2, “Inhibitor of the folding of the HIV-1-protease as antiviral agent” (priority 2005, dated 2009).

Assays:
HIV-1-Protease [1] = target: T1, HIV-1-Protease (Human immunodeficiency virus type 1 group M subtype B, UniProt P04585, C555A/C583A/L521I/L551I/Q495K); test: biochemical; assay type: biochemical; design: Recombinant HIV-1-Protease, expressed in E. Coli; purchased Sigma P7338; host or cells: E. coli; conditions: for variation in the kinetic parameters with respect to the uninhibited case: control peptides used in the same way as p-S8; for Ki: pH 6, 37 °C
Description: Recombinant HIV-1-Protease, expressed in E. Coli (Sigma Cat. no. P7338)contained five mutations to restrict autoproteolysis (Q7K, L33I, […]) and to restrict cysteine thiol oxidation (C67A and C95A). The enzyme was stored at (−70° C. as solution with concentration 25 mg/63 mL in dilute HCl, (pH=1.6)). A chromogenic substrate for HIV-1-PR (Sigma Cat. no. H5535) was obtained as a 1 mg desiccate, diluted with 0.1 ml of DMSO, and stored at −20° C. Protease assisted cleavage between the Nle and the Phe(NO2) residues of substrate entails a blue-shift of the absorption maximum (277 nm to 272 nm). It can be adequately monitored observing the continuous decrease of absorbance at […]. […] Res. Comm 168:274-280.
After that 1 mg of inhibitor peptide was dissolved in […] of DMSO, 4 ml of this solution were then diluted with 16 ml of DMSO and 180 ml of the buffer used for assay.
The buffer was prepared by adding […] NaCl, 1 mM EDTA and 1 mM dithiothreitol to a 20 mM phosphate buffer (pH 6).
The sequences of these control peptides are […] (SEQ ID NO:2) and […] (SEQ ID NO:3) corresponding to fragments 61-70 and 9-19, respectively, of the HIV-1-PR sequence, as well as the […] (SEQ ID NO:4) sequence, which is not related in any way to the protease.
Each measure was performed recording the absorbance at 300 nm (4.13 eV) in a standard UV-vis spectrophotometer (Jasco V-560). […] The sample in the cuvette was exposed to a constant temperature (37±0.05° C.) provided by continuous circulation of water from a water bath to the cell holder via a circulation pump.
After proper thermal stabilization of the substrate dissolved in the buffer (pH 6), the absorbance at 300 nm was recorded. We performed 6 measures spanning a range of substrate concentrations from 50 μM to 250 μM. The reaction was initiated by adding 2.78 μg of enzyme and recording the absorbance decrease at 300 nm for 1200 sec. In all the reported measures the enzyme has thus a nominal concentration of 1.8 μM. Since, to our knowledge, no accurate measure has been published of the dimerization constant of HIV-1-PR at pH=6.0, it is difficult to estimate precisely the active site concentration in our assay.
In all the reported measures the final concentration of inhibitor was [I0]=[…]. The Absorbance decrease at 300 nm was recorded for 1200 sec.

HIV-1-Protease [2] = target: T1, HIV-1-Protease; conditions: protease:peptide 1:3; protease alone 79%
Description: Ultraviolet CD spectra were recorded on a Jasco J-810 spectropolarimeter in nitrogen atmosphere at room temperature using 0.1 cm path-length quartz cell. Each spectrum was recorded between 260-200 nm. The data were collected at a rate of 10 nm/min with a wavelength step of 0.2 nm and a time constant of 2 s. The spectra were corrected with respect to the baseline and normalized to the aminoacidic concentration. The protein and the peptide were dissolved in a 20 mM phosphate buffer with 0.8 M NaCl at the same concentration used for the activity assays. The CD spectra were analyzed in terms of contribution of secondary structure elements using the K2D method based on comparison with CD spectra of proteins and peptides with known secondary structure.
The conformational properties of the inhibited protease have been investigated by means of UV circular dichroism experiments.

[3] = enzyme:peptide 1:3, pH 6, 37 °C

## QILIEICGHK (Fragment 61-70 of the HIV-1-PR sequence) [K1, reference compound]
HIV-1-Protease [1]; [S0]=125 mM (FIG. 7(b))
  initial velocity v0 of the reaction in presence of peptide: 0.051 µM/s
HIV-1-Protease [1]
  variation in the kinetic parameters with respect to the uninhibited case: no appreciable variation

## CC[C@H](C)[C@H](NC(=O)[C@H](CCC(N)=O)NC(=O)[C@@H](NC(=O)[C@H](CC(C)C)NC(=O)[C@H](CC(C)C)NC(=O)[C@H](CC(N)=O)NC(=O)[C@H](CCCNC(=N)N)NC(=O)CNC(=O)[C@@H](NC(=O)[C@@H](NC(=O)[C@H](CC(N)=O)NC(C)=O)[C@@H](C)CC)[C@@H](C)CC)[C@@H](C)O)C(N)=O [p-S8, 83N, 84I, 85I, 86G, 87R, 88N, 89L, 90L, 91T, 92Q, 93I]
HIV-1-Protease [2]
  beta-sheet content of protease plus peptide (CD): 45%
HIV-1-Protease [1]
  inhibition mechanism: non-competitive
HIV-1-Protease [1]; dissociation constant KI (inhibitor-free enzyme)
  Ki: 0.38 ± 0.81 µM
HIV-1-Protease [1]; dissociation constant K′I (inhibitor-substrate-enzyme complex)
  Ki: 0.18 ± 0.234 µM
HIV-1-Protease [1]; [3]
  apparent dissociation constant K′M of the inhibited reaction: 332 ± 191 mM
  maximum velocity vmax of the inhibited reaction: 0.026 ± 0.011 mM/s

## LSQETFDLWKLLPEN (Designed Peptide) [K3, reference compound]
HIV-1-Protease [1]
  variation in the kinetic parameters with respect to the uninhibited case: no appreciable variation
